From patent US9120877B2, “Sulfated polysaccharide compound and the preparation and use thereof” (PARNELL TECHNOLOGIES PTY LTD, priority 2008, dated 2015)

Assay: Stability (degradation and discolouration) of injectable aqueous GXS formulation with antioxidants without refrigeration
Format: physicochemical
Conditions: antioxidant in GXS injectable formulation, room temperature
From the text: In one arrangement, the injectable formulation includes a suitable antioxidant to enable the aqueous formulation to remain substantially stable (that is to resist discolouration and degradation) without refrigeration. Patent WO 2007/123800 claims a PPS formulation with “an antioxidant in the group metabisulfite, sodium bisulfate and ascorbate in a concentration of about 0.02% w/v to about 5.0% w/v” is stable without refrigeration. […] This finding supports a conclusion that GXS is a distinct entity to prior art PPS extracted from xylan.

Compound	Exemplary effective concentration to achieve substantial stability of GXS injectable formulation [% by weight/volume]
O=S(=O)([O-])CO.[Na+] [Sodium hydroxymethane sulfonate]	1
O=S([O-])O.[Na+] [Sodium bisulfite ACS Reagent, Sodium bisulfite]	0.5
O=S([O-])S(=O)(=O)[O-].[Na+].[Na+] [Sodium metabisulfite]	0.5
